Measured values published in ChEMBL document CHEMBL1201862, “PubChem BioAssay data set” (2004).
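Cultured in 96-well plates, cells were exposed to test compound for 48 hours across five concentrations. GI50 = concentration required for 50% inhibition of growth.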 Calls of active or inactive are those of the source. No stated cut-off is given here; in the data, active = GI50 up to about 1.1 µM and inactive = higher.

Experiments:
Assay in all cases: NCI anticancer screen, dose series, 48 h
786-0 = tested on: 786-0
TK-10 = tested on: TK-10
A549 = tested on: A549
UACC-257 = tested on: UACC-257
OVCAR-8 = tested on: OVCAR-8
LOX IMVI = tested on: LOX IMVI
LXFL 529 = tested on: LXFL 529
CAKI-1 = tested on: CAKI-1
HOP-62 = tested on: HOP-62
NCI-H226 = tested on: NCI-H226
UO-31 = tested on: UO-31
EKVX = tested on: EKVX
KM12 = tested on: KM12
SF-295 = tested on: SF-295
HL-60 = tested on: HL-60

Measured: GI50

O=C(O)CNS(=O)(=O)c1ccc(NCc2ccccc2)cc1
inactive: 786-0 > 100 µM | TK-10 > 100 µM | A549 > 100 µM | UACC-257 > 100 µM | OVCAR-8 > 100 µM | LOX IMVI > 100 µM | LXFL 529 > 100 µM | CAKI-1 > 100 µM | HOP-62 > 100 µM | NCI-H226 > 100 µM | UO-31 > 100 µM | EKVX > 100 µM

Cc1ccc(Oc2ccc(C)cc2N)cc1
inactive: 786-0 86.9 µM | TK-10 > 100 µM | A549 > 100 µM | UACC-257 80.9 µM | OVCAR-8 > 100 µM | LOX IMVI > 100 µM | LXFL 529 > 100 µM | HOP-62 > 100 µM | KM12 > 100 µM | NCI-H226 48.6 µM | UO-31 34.8 µM | SF-295 96.4 µM | EKVX 71 µM | HL-60 33.9 µM

CCC1CN2CCc3c([nH]c4ccccc34)C2C[C@@H]1CC(=O)N(C)C (stereo partly drawn)
inactive: 786-0 > 100 µM | TK-10 > 100 µM | A549 > 100 µM | UACC-257 > 100 µM | OVCAR-8 > 100 µM | LOX IMVI > 100 µM | LXFL 529 > 100 µM | HOP-62 > 100 µM | KM12 > 100 µM | NCI-H226 > 100 µM | UO-31 > 100 µM | SF-295 > 100 µM | EKVX > 100 µM | HL-60 > 100 µM

COCCOCOC(CCCCO)c1cc(C)c(O[Si](C)(C)C(C)(C)C)c(C)c1 (stereo not drawn)
inactive: 786-0 11.1 µM | TK-10 13.4 µM | A549 3.68 µM | UACC-257 3.01 µM | OVCAR-8 5.01 µM | LOX IMVI 5.66 µM | LXFL 529 10.4 µM | HOP-62 10.8 µM | KM12 4.59 µM | NCI-H226 2.41 µM | UO-31 4.11 µM | SF-295 3.97 µM | EKVX 8.17 µM | HL-60 1.59 µM

C#CCN(N=O)C(=O)NC(CCCCNC(=O)OCc1ccccc1)C(=O)OCc1ccccc1 (stereo not drawn)
inactive: 786-0 17.8 µM | TK-10 27.7 µM | A549 76.2 µM | UACC-257 28.1 µM | OVCAR-8 17.4 µM | LOX IMVI 25.5 µM | LXFL 529 17 µM | HOP-62 > 100 µM | KM12 77.3 µM | UO-31 30.8 µM | SF-295 55.5 µM | EKVX 22.7 µM | HL-60 17.3 µM

COC(=O)CCC(NC(=S)N/N=C(\C)c1cnc2ccccc2n1)C(=O)OC (stereo not drawn)
inactive: 786-0 43.6 µM | TK-10 > 100 µM | A549 34.8 µM | UACC-257 49.5 µM | OVCAR-8 46.9 µM | LOX IMVI 23.2 µM | LXFL 529 29.9 µM | HOP-62 45.7 µM | KM12 26 µM | NCI-H226 41.8 µM | UO-31 27.4 µM | SF-295 49.8 µM | EKVX 12.6 µM | HL-60 2.33 µM

COc1ccc2oc3c4c2c1CCC4CCC3=O (stereo not drawn)
inactive: 786-0 > 100 µM | TK-10 5.47 µM | A549 > 100 µM | UACC-257 16.8 µM | OVCAR-8 59.4 µM | LOX IMVI > 100 µM | LXFL 529 > 100 µM | HOP-62 > 100 µM | KM12 > 100 µM | UO-31 25.2 µM | SF-295 > 100 µM | EKVX > 100 µM | HL-60 > 100 µM

Oc1cc(-c2ccccn2)nc2cccc(F)c12
inactive: 786-0 > 100 µM | TK-10 > 100 µM | A549 > 100 µM | UACC-257 > 100 µM | OVCAR-8 > 100 µM | LOX IMVI 89.9 µM | LXFL 529 74.1 µM | HOP-62 > 100 µM | KM12 > 100 µM | NCI-H226 > 100 µM | UO-31 > 100 µM | SF-295 > 100 µM | EKVX > 100 µM | HL-60 > 100 µM

COc1ccc2nc(-c3ccc(OCc4ccccc4)cc3)ccc2c1
inactive: 786-0 > 100 µM | TK-10 > 100 µM | A549 > 100 µM | UACC-257 > 100 µM | OVCAR-8 > 100 µM | LOX IMVI > 100 µM | LXFL 529 > 100 µM | HOP-62 > 100 µM | KM12 > 100 µM | NCI-H226 > 100 µM | UO-31 > 100 µM | SF-295 > 100 µM | EKVX > 100 µM | HL-60 > 100 µM

CCCN1CC=CCC1
inactive: 786-0 > 100 µM | TK-10 > 100 µM | A549 > 100 µM | UACC-257 > 100 µM | OVCAR-8 > 100 µM | LOX IMVI > 100 µM | LXFL 529 > 100 µM | KM12 > 100 µM | UO-31 > 100 µM | SF-295 > 100 µM | EKVX > 100 µM | HL-60 > 100 µM

Cc1c(C(=O)/C=C/c2ccco2)[n+]([O-])c2ccccc2[n+]1[O-]
inactive: 786-0 > 100 µM | TK-10 > 100 µM | A549 > 100 µM | UACC-257 > 100 µM | OVCAR-8 > 100 µM | LOX IMVI > 100 µM | LXFL 529 > 100 µM | CAKI-1 > 100 µM | KM12 > 100 µM | NCI-H226 > 100 µM | UO-31 > 100 µM | SF-295 > 100 µM | EKVX > 100 µM | HL-60 42 µM

CC1(c2ccc(F)cc2)C2C(=O)NC(=O)C1C(=O)NC2=O (stereo not drawn)
inactive: 786-0 > 100 µM | TK-10 > 100 µM | A549 > 100 µM | UACC-257 > 100 µM | OVCAR-8 > 100 µM | LOX IMVI > 100 µM | LXFL 529 > 100 µM | CAKI-1 > 100 µM | KM12 > 100 µM | NCI-H226 > 100 µM | UO-31 > 100 µM | SF-295 > 100 µM | EKVX > 100 µM | HL-60 > 100 µM

CCOc1ccc2c(c1)[n+]([O-])c(S(=O)(=O)c1ccc(C)cc1)c(N)[n+]2[O-]
inactive: 786-0 > 100 µM | TK-10 > 100 µM | A549 > 100 µM | UACC-257 > 100 µM | OVCAR-8 > 100 µM | LXFL 529 > 100 µM | CAKI-1 > 100 µM | HOP-62 > 100 µM | KM12 > 100 µM | NCI-H226 > 100 µM | UO-31 > 100 µM | SF-295 > 100 µM | EKVX > 100 µM | HL-60 > 100 µM

CCOP(=O)(OCC)C(C(=O)OC)C(=O)C(=O)Nc1c(C)cc(Br)cc1C (stereo not drawn)
inactive: 786-0 > 100 µM | TK-10 > 100 µM | A549 > 100 µM | UACC-257 > 100 µM | OVCAR-8 > 100 µM | LOX IMVI > 100 µM | LXFL 529 > 100 µM | CAKI-1 > 100 µM | HOP-62 > 100 µM | KM12 > 100 µM | NCI-H226 > 100 µM | UO-31 > 100 µM | EKVX > 100 µM | HL-60 > 100 µM

COc1ccc(C(=O)Cc2c(C(=O)c3ccccc3)c3ccccc3n2C(=O)c2ccccc2)cc1
inactive: 786-0 > 100 µM | TK-10 > 100 µM | A549 35.7 µM | UACC-257 > 100 µM | OVCAR-8 > 100 µM | LXFL 529 67.6 µM | CAKI-1 > 100 µM | HOP-62 > 100 µM | KM12 53.8 µM | NCI-H226 > 100 µM | UO-31 32.9 µM | SF-295 31.3 µM | HL-60 38.3 µM
